Experimental data from ChEMBL document CHEMBL3352436, “DDD-028: a potent potential non-opioid, non-cannabinoid analgesic for neuropathic and inflammatory pain” (Bioorg Med Chem Lett, 2014).
Calls of active or inactive are those of the source.

What was measured:
Rattus norvegicus [1] = assay: Antinociceptive activity in Complete Freund's adjuvant-induced inflammatory pain CD rat model assessed as time required for maximal effect at 30 mg/kg, po relative to control; format: functional
[2] = AUC (0 to infinity) in CD rat at 27 mg/kg, iv; format: ADME, organism-based; parameters: time infinity, dose 27 mg/kg, route intravenous; conditions: plasma
[3] = Half life in CD rat at 27 mg/kg, iv; format: ADME, organism-based; parameters: dose 27 mg/kg, route intravenous; conditions: in vivo
Rattus norvegicus [4] = assay: Antinociceptive activity in Complete Freund's adjuvant-induced inflammatory pain CD rat model assessed as mechanical hypersensitivity measured as weight bearing capacity at 30 mg/kg, po measured after 15 to 120 mins relative to control; format: functional, organism-based; parameters: dose 30 mg/kg
[5] = Elimination rate constant in CD rat at 27 mg/kg, iv; format: ADME, organism-based; parameters: dose 27 mg/kg, route intravenous; conditions: in vivo
Rattus norvegicus [6] = assay: Antinociceptive activity in Complete Freund's adjuvant-induced inflammatory pain CD rat model assessed as mechanical hypersensitivity measured as weight bearing capacity at 30 mg/kg, po measured up to 15 mins relative to control; format: functional, organism-based; parameters: dose 30 mg/kg
[7] = Cmax in CD rat at 27 mg/kg, iv; format: ADME, organism-based; parameters: dose 27 mg/kg, route intravenous; conditions: in vivo
[8] = AUC (0 to t) in CD rat at 27 mg/kg, iv; format: ADME, organism-based; parameters: dose 27 mg/kg, route intravenous; conditions: plasma
[9] = Tmax in CD rat at 27 mg/kg, iv; format: ADME, organism-based; parameters: dose 27 mg/kg, route intravenous; conditions: in vivo
Rattus norvegicus [10] = assay: Toxicity in Complete Freund's adjuvant-induced inflammatory pain CD rat model assessed as sedation at 30 mg/kg, po measured at 2 hrs post dose; format: organism-based; parameters: dose 30 mg/kg, route oral; conditions: in vivo
Rattus norvegicus [11] = assay: Antinociceptive activity in Complete Freund's adjuvant-induced inflammatory pain CD rat model assessed as mechanical hypersensitivity measured as weight bearing capacity at 5 mg/kg, po administered 24 hrs post challenge relative to control; format: functional
Mus musculus [12] = assay: Antinociceptive activity in sciatic nerve chronic constriction injury CD1 mouse model assessed as paw withdrawal threshold at 3.5 umol/kg, po measured at 180 mins (reference value: 0.26 to 0.37 g); format: functional
[13] = Binding affinity to sigma2 receptor (unknown origin); parameters: species or system Homo sapiens
[14] = Tmax in CD1 mouse at 5 mg/kg, po; format: ADME, organism-based; parameters: dose 5 mg/kg, route oral; conditions: in vivo
Adenosine receptor A3 = molecular target: T1, Adenosine receptor A3 (Homo sapiens, UniProt P0DMS8); assay: Binding affinity to adenosine A3 receptor (unknown origin)
T1 sequence (P0DMS8 whole entry): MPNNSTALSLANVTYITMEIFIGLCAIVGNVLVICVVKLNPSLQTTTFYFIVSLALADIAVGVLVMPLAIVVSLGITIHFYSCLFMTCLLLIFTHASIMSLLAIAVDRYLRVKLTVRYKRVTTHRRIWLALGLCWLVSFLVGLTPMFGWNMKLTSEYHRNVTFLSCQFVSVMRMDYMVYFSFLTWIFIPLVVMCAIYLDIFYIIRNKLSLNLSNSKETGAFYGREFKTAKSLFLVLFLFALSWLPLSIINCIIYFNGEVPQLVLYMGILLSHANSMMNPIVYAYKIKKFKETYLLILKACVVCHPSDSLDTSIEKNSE

Mus musculus [15] = assay: Antinociceptive activity in sciatic nerve chronic constriction injury CD1 mouse model assessed as paw withdrawal threshold at 3.5 umol/kg, po measured at 60 mins (reference value: 0.26 to 0.37 g); format: functional
Mus musculus [16] = assay: Antinociceptive activity in sciatic nerve chronic constriction injury CD1 mouse model assessed as paw withdrawal threshold at 3.5 umol/kg, po measured at 30 mins (reference value: 0.26 to 0.37 g); format: functional
[17] = molecular target: Transient receptor potential cation channel subfamily V member 1 (Homo sapiens, UniProt Q8NER1); assay: Binding affinity to TRPV1 (unknown origin)
Rattus norvegicus [18] = assay: Antinociceptive activity in Complete Freund's adjuvant-induced inflammatory pain CD rat model assessed as mechanical hypersensitivity measured as weight bearing capacity at 5 mg/kg, po measured after 15 to 120 mins relative to control; format: functional
Cannabinoid receptor 2 = Cannabinoid receptor 2 (Homo sapiens, UniProt P34972); assay: Binding affinity to cannabinoid CB2 receptor (unknown origin)
Mus musculus [19] = assay: Antinociceptive activity in sciatic nerve chronic constriction injury CD1 mouse model assessed as paw withdrawal threshold at 1.3 umol/kg administered intrathecally measured at 300 mins (reference value: 0.21 to 0.30 g); format: functional
Rattus norvegicus [20] = assay: Antinociceptive activity in Complete Freund's adjuvant-induced inflammatory pain CD rat model assessed as time required for maximal effect at 5 mg/kg, po relative to control; format: functional
Rattus norvegicus [21] = assay: Toxicity in Complete Freund's adjuvant-induced inflammatory pain CD rat model assessed as sedation at 5 mg/kg, po measured at 2 hrs post dose; format: organism-based; parameters: dose 5 mg/kg, route oral; conditions: in vivo
[22] = Half life in CD1 mouse at 5 mg/kg, po; format: ADME, organism-based; parameters: dose 5 mg/kg, route oral; conditions: in vivo
Rattus norvegicus [23] = assay: Antinociceptive activity in spinal nerve ligation CD rat model of neuropathic pain assessed as inhibition of mechanical allodynia measured as paw withdrawal threshold at 5 mg/kg, po after 15 to 180 mins relative to pregabalin; format: functional
Mus musculus [24] = assay: Antinociceptive activity in sciatic nerve chronic constriction injury CD1 mouse model assessed as paw withdrawal threshold at 1.3 umol/kg administered intrathecally measured at 60 mins (reference value: 0.21 to 0.30 g); format: functional
[25] = AUC (0 to t) in CD1 mouse at 5 mg/kg, po; format: ADME, organism-based; parameters: dose 5 mg/kg, route oral; conditions: plasma
[26] = molecular target: Somatostatin receptor type 4 (Homo sapiens, UniProt P31391); assay: Binding affinity to SST4 receptor (unknown origin)
Rattus norvegicus [27] = assay: Antinociceptive activity in Complete Freund's adjuvant-induced inflammatory pain CD rat model assessed as mechanical hypersensitivity measured as weight bearing capacity at 5 mg/kg, po measured up to 15 mins relative to control; format: functional, organism-based; parameters: dose 5 mg/kg
Rattus norvegicus [28] = assay: Antinociceptive activity in spinal nerve ligation CD rat model of neuropathic pain assessed as inhibition of mechanical allodynia measured as time required for maximal effect at 5 mg/kg, po; format: functional
Rattus norvegicus [29] = assay: Antinociceptive activity in Complete Freund's adjuvant-induced inflammatory pain CD rat model assessed as mechanical hypersensitivity measured as weight bearing capacity at 5 mg/kg, po measured after 15 to 120 mins relative to indomethacin; format: functional
Mus musculus [30] = assay: Antinociceptive activity in sciatic nerve chronic constriction injury CD1 mouse model assessed as paw withdrawal threshold at 3.5 umol/kg, po measured at 300 mins (reference value: 0.26 to 0.37 g); format: functional
Cannabinoid receptor 1 = Cannabinoid receptor 1 (Homo sapiens, UniProt P21554); assay: Binding affinity to cannabinoid CB1 receptor (unknown origin)
[31] = Elimination rate constant in CD1 mouse at 5 mg/kg, po; format: ADME, organism-based; parameters: dose 5 mg/kg, route oral; conditions: in vivo
[32] = Binding affinity to strychnine-sensitive glycine receptor (unknown origin); parameters: species or system Homo sapiens
Mus musculus [33] = assay: Antinociceptive activity in sciatic nerve chronic constriction injury CD1 mouse model assessed as paw withdrawal threshold at 1.3 umol/kg administered intrathecally measured at 180 mins (reference value: 0.21 to 0.30 g); format: functional
[34] = Binding affinity to strychnine-insensitive glycine receptor (unknown origin); parameters: species or system Homo sapiens
Rattus norvegicus [35] = assay: Antinociceptive activity in spinal nerve ligation CD rat model of neuropathic pain assessed as inhibition of mechanical allodynia at 39 mg/kg, po after 15 to 180 mins; format: functional
[36] = Binding affinity to […] AMPA receptor (unknown origin); parameters: species or system Homo sapiens
[37] = molecular target: Somatostatin receptor type 2 (Homo sapiens, UniProt P30874); assay: Binding affinity to SST2 receptor (unknown origin)
Mus musculus [38] = assay: Antinociceptive activity in sciatic nerve chronic constriction injury CD1 mouse model assessed as paw withdrawal threshold at 1.3 umol/kg administered intrathecally measured at 30 mins (reference value: 0.21 to 0.30 g); format: functional
Adenosine receptor A2a = Adenosine receptor A2a (Homo sapiens, UniProt P29274); assay: Binding affinity to adenosine A2A receptor (unknown origin)
[39] = Cmax in CD1 mouse at 5 mg/kg, po; format: ADME, organism-based; parameters: dose 5 mg/kg, route oral; conditions: in vivo
Mus musculus [40] = assay: Antinociceptive activity in sciatic nerve chronic constriction injury CD1 mouse model assessed as paw withdrawal threshold at 1.3 umol/kg administered intrathecally measured at 120 mins (reference value: 0.21 to 0.30 g); format: functional
Mus musculus [41] = assay: Antinociceptive activity in sciatic nerve chronic constriction injury CD1 mouse model assessed as paw withdrawal threshold at 3.5 umol/kg, po measured at 120 mins (reference value: 0.26 to 0.37 g); format: functional
[42] = AUC (0 to infinity) in CD1 mouse at 5 mg/kg, po; format: ADME, organism-based; parameters: time infinity, dose 5 mg/kg, route oral; conditions: plasma
Adenosine receptor A1 = molecular target: T2, Adenosine receptor A1 (Homo sapiens, UniProt P30542); assay: Binding affinity to adenosine A1 receptor (unknown origin)
T2 sequence (P30542 whole entry): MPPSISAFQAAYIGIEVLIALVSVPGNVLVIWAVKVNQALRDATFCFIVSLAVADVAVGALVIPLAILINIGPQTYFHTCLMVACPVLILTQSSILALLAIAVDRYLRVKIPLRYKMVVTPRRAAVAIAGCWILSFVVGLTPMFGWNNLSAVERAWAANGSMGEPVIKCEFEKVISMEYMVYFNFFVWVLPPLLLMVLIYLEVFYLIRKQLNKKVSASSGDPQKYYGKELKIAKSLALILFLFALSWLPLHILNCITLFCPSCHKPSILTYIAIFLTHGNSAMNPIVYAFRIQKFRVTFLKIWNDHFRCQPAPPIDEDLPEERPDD

Rattus norvegicus [43] = assay: Antinociceptive activity in Complete Freund's adjuvant-induced inflammatory pain CD rat model assessed as mechanical hypersensitivity measured as weight bearing capacity at 5 mg/kg, po administered before challenge relative to control; format: functional
Rattus norvegicus [44] = assay: Antinociceptive activity in spinal nerve ligation CD rat model of neuropathic pain assessed as inhibition of mechanical allodynia measured as time required for maximal effect at 39 mg/kg, po; format: functional
Rattus norvegicus [45] = assay: Antinociceptive activity in spinal nerve ligation CD rat model of neuropathic pain assessed as inhibition of mechanical allodynia measured as paw withdrawal threshold at 39 mg/kg, po up to 15 mins; format: functional, organism-based; parameters: dose 39 mg/kg

Sequence of Cannabinoid receptor 2 (P34972 whole entry): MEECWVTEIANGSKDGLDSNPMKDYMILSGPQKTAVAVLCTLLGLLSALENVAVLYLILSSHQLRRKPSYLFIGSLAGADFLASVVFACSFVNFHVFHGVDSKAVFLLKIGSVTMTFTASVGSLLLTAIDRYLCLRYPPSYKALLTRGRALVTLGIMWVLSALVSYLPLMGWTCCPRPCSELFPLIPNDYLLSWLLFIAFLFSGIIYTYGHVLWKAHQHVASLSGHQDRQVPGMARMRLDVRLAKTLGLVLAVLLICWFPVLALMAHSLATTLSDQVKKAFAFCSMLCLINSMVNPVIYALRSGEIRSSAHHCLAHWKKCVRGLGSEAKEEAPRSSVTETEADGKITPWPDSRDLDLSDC
Sequence of Transient receptor potential cation channel subfamily V member 1 (Q8NER1 whole entry): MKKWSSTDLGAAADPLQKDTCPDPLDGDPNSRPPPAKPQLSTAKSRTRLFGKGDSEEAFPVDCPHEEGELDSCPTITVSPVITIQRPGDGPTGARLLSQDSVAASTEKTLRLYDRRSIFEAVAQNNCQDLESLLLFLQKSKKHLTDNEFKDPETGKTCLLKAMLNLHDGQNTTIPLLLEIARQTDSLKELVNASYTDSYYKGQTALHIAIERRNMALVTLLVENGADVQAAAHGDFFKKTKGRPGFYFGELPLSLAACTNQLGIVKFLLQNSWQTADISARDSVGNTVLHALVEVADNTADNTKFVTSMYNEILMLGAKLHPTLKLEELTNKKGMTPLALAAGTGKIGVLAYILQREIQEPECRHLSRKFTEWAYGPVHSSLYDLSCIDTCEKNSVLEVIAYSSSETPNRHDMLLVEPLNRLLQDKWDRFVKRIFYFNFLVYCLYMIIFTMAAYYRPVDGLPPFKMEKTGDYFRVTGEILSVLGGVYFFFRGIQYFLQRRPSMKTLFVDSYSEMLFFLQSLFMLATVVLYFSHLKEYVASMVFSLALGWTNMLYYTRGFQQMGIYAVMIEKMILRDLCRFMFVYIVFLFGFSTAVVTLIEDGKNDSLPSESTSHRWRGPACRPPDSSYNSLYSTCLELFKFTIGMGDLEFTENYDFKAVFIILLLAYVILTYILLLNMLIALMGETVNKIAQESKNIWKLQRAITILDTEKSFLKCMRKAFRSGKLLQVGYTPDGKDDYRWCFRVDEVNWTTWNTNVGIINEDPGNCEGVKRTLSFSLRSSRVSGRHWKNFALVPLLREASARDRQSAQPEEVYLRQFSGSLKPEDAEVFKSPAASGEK
Sequence of Somatostatin receptor type 4 (P31391 whole entry): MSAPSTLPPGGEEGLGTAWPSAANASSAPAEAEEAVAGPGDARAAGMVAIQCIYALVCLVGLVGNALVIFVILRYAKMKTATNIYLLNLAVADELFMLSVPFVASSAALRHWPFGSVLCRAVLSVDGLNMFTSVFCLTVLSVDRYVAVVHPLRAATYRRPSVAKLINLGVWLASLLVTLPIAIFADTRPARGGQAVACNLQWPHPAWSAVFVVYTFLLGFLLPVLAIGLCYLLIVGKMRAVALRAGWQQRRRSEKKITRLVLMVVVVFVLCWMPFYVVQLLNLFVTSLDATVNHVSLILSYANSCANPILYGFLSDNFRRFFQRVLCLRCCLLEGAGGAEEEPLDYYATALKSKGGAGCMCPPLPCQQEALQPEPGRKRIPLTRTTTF
Sequence of Adenosine receptor A2a (P29274 whole entry): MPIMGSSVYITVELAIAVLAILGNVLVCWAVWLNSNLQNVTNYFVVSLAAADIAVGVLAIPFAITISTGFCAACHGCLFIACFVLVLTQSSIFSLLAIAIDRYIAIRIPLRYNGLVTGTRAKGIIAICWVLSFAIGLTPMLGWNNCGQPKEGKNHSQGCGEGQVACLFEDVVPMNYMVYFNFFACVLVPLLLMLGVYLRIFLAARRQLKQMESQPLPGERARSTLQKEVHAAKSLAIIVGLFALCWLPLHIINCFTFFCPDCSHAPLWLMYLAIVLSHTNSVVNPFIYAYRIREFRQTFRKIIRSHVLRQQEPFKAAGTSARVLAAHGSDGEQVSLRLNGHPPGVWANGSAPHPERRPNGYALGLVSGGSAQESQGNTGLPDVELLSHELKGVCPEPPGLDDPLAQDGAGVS
Sequence of Somatostatin receptor type 2 (P30874 whole entry): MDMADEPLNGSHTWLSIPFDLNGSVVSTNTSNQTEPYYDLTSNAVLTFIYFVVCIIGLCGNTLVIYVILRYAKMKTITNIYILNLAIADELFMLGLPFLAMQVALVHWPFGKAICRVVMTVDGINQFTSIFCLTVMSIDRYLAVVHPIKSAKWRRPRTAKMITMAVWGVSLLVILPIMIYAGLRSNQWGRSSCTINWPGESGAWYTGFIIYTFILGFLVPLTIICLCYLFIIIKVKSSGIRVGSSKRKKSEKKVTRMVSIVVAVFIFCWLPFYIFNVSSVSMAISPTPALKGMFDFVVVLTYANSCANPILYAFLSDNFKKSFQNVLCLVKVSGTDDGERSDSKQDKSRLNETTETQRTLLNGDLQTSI
Sequence of Cannabinoid receptor 1 (P21554 whole entry): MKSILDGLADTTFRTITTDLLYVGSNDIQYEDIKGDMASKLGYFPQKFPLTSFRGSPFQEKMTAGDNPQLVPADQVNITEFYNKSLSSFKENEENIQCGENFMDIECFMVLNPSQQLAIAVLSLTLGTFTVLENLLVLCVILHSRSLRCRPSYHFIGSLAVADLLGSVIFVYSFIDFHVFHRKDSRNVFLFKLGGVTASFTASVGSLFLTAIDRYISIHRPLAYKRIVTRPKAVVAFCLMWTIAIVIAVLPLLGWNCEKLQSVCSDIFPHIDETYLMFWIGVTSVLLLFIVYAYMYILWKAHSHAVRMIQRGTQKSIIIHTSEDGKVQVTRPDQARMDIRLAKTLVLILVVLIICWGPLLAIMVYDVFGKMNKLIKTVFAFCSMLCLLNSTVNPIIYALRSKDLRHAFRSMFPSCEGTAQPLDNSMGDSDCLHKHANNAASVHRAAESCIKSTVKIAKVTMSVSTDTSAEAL

Compound: COc1ccc2c(c1)c(CC(=O)O)c(C)n2C(=O)c1ccc(Cl)cc1 [INDOMETHACIN]
- Time (Rattus norvegicus [1]): 60 min
- AUC(0-inf) [2]: 97100 ng·h/mL
- half-life [3]: 5.99 h
- Activity (Rattus norvegicus [4]): Active
- k el [5]: 3.33e-05 s⁻¹
- Activity (Rattus norvegicus [6]): Active
- Cmax [7]: 10400 ng/mL
- AUC(0-t) [8]: 93800 ng·h/mL
- Tmax [9]: 0.75 h
- Activity (Rattus norvegicus [10]): Toxic

Compound: CN1CCc2c(c3cccc4c3n2CCc2ccccc2-4)C1
- Activity (Rattus norvegicus [11]): 35.2%
- Activity (Mus musculus [12]): 0.4 g
- Ki [13]: 0.312 µM
- Tmax [14]: 0.25 h
- Ki (Adenosine receptor A3): > 10 µM
- Activity (Mus musculus [15]): 1.09 g
- Activity (Mus musculus [16]): 0.75 g
- Ki [17]: Not Active
- Activity (Rattus norvegicus [18]): 90%
- Ki (Cannabinoid receptor 2): > 10 µM
- Activity (Mus musculus [19]): 0.21 g
- Time (Rattus norvegicus [20]): 60 min
- Activity (Rattus norvegicus [21]): Non-toxic
- half-life [22]: 1.86 h
- fold change (FC) (Rattus norvegicus [23]): 7
- Activity (Mus musculus [24]): 0.88 g
- AUC(0-t) [25]: 211 ng·h/mL
- Ki [26]: > 10 µM
- Activity (Rattus norvegicus [27]): Active
- Time (Rattus norvegicus [28]): 30 min
- fold change (FC) (Rattus norvegicus [29]): 5
- Activity (Mus musculus [30]): 0.21 g
- Ki (Cannabinoid receptor 1): > 10 µM
- k el [31]: 0.000103 s⁻¹
- Ki [32]: > 10 µM
- Activity (Mus musculus [33]): 0.41 g
- Ki [34]: > 10 µM
- inhibition in vivo at 39 mg/kg (Rattus norvegicus [35]): 50%
- Ki [36]: > 10 µM
- Ki [37]: > 10 µM
- Activity (Mus musculus [38]): 0.86 g
- Ki (Adenosine receptor A2a): > 10 µM
- Cmax [39]: 126 ng/mL
- Activity (Mus musculus [40]): 0.67 g
- Activity (Mus musculus [41]): 0.57 g
- AUC(0-inf) [42]: 216 ng·h/mL
- Ki (Adenosine receptor A1): > 10 µM
- Activity (Rattus norvegicus [43]): 50.8%

Compound: CC(C)C[C@H](CN)CC(=O)O [PREGABALIN]
- Time (Rattus norvegicus [44]): 120 min
- inhibition (Rattus norvegicus [45]): Active
